Here are results for 19 compounds from patent publication US20250236616A1, “IMMUNOMODULATING AZALIDES” (Zoetis Services LLC, priority 2021, published 2025).

The subject of one experiment is TNF-α. Nature of the experiment: Whole bovine blood assay, LPS-induced TNF-α. The class given is cell-based. The following applies: fresh whole bovine blood, LPS stimulant, top drug concentration 250 μM. The protocol: Whole Blood Assay-Fresh whole bovine blood samples were collected into heparinized vacutainer tubes. Assay plates were prepared with 25 μL of drug diluted in PBS at varying concentration in 96 round bottom wells, then 225 μL of blood was added and plates incubated at 37° C. for 4 hours. Cells were stimulated with LPS (or PBS for controls) by adding 25 μL to the plates at a final concentration of 1 μg/mL and incubated at 37° C. for 18 hours. To collect plasma, plates were centrifuged at 2,000×g for 10 minutes and 100 μL of supernatant was transferred to a 96 well polypropylene plate that was sealed and stored at −80° C. Samples were assayed for cytokines using the Meso Scale Discovery (MSD) platform (described below). This same MSD platform was used to assess cytokines in the plasma collected directly from drug treated animals.
Cytokine Detection—An MSD U-Plex cytokine assay was developed following the MSD U-Plex protocol guide and included biotinylated capture antibodies against: bovine Interleukin (IL)-1β (Biorad), bovine IL-6 (R&D Systems) and bovine tumor necrosis factor (TNF)-α (R&D Systems). […] Assay calibrators (Kingfisher) were diluted to a concentration of […] in control lithium heparin plasma, followed by 4-fold serial dilutions into plasma. […] Antibodies were used at the following concentrations: anti-IL-1β at 1 μg/mL, anti-IL-6 at 1 μg/mL and anti-TNF-α at 0.5 μg/mL. Cytokines were quantified according to manufacturer's instructions using a chemiluminescent readout. In brief, 0.5 mL of all biotinylated antibodies were diluted to 10 μg/mL with Diluent 100 and paired to their respective linkers by adding 750 μL of supplied Linker solution and incubated for 30 minutes followed by addition of Stop solution for another 30 minutes. The linked antibodies were then diluted 10-fold into Stop solution. Plates were coated by adding 50 μL of antibody solutions per well and incubated covered and shaking for 1 hour at room temperature. Plates were washed three times with PBS/Tween20 prior to samples or standards being added at 30 μL per well and incubated as above. Plates were washed three times before detection antibodies were added along with 2% goat and rabbit serum to block and incubated same as above. Plates were washed a further three times before addition of 150 μL 2X Read buffer and read immediately on the SI6000 instrument (MSD). For soluble protein levels, a BCA protein kit (Thermofisher) was used. The cytokine concentrations (pg/mL) were normalized to the total protein levels for each sample. [Bassel et. al., BMC Veterinary Research (2020) 16:168]
Therefore, a fresh whole bovine blood assay was developed with LPS as a stimulant (TLR-4 agonist) and with IL-1β and TNF-α as the read-out. Compounds of the invention were evaluated against a positive control for their ability to inhibit LPS-induced IL-1β and TNF-α as an overall evaluation of relative potency and modulation of target pathways.
TNFα is a cell signaling protein, cytokine, that plays a key role in both acute and chronic inflammation. In the bovine whole blood in vitro screening assay the inhibition of TNFα as induced by stimulation by lipopolysaccharide (LPS) and as measured by half the maximal inhibitory concentration (IC50) is recognized as the primary biomarker of immunomodulation potency upon pretreatment with the compounds of the invention. IL-1 B is a mediator of the inflammation response and is involved in a number of cellular activities including proliferation, differentiation and apoptosis. IL-1ß is also released upon cellular stress or cytotoxicity or upon TLR stimulation. […] In order to estimate a therapeutic index from the in vitro assay a differential between the TNFα IC50 (immunomodulation potency) versus the perceived cellular toxicity concentration (IL-1β release or overstimulation) was utilized.

The test system of a further experiment is IL-6. As to the kind of experiment: Whole bovine blood assay, LPS-induced IL-6. The following applies: fresh whole bovine blood, LPS stimulant, top drug concentration 250 μM. The experiment is classed as cell-based.

On to `CC[C@H]1OC(=O)[C@H](C)[C@@H](O[C@H]2C[C@@](C)(OC)[C@](O)(CNCCC(C)C)[C@H](C)O2)[C@H](C)[C@@H](O[C@@H]2O[C@H](C)C[C@H](N(C)S(=O)(=O)c3ccc(Cl)cc3)[C@H]2O)[C@](C)(O)C[C@@H](C)CN[C@H](C)[C@@H](O)[C@]1(C)O` [Example B-21], for which the IC50 in the experiment with TNF-α turned out to be 5 µM; in the experiment with IL-6 it was 6 µM.

Turning to `CC[C@H]1OC(=O)[C@H](C)[C@@H](O[C@H]2C[C@@](C)(OC)[C@](O)(CNCc3ccc(C(F)(F)F)cc3)[C@H](C)O2)[C@H](C)[C@@H](O[C@@H]2O[C@H](C)C[C@H](N(C)S(=O)(=O)c3ccc(Cl)cc3)[C@H]2O)[C@](C)(O)C[C@@H](C)CN[C@H](C)[C@@H](O)[C@]1(C)O` [Example B-25], the IC50 in the experiment with TNF-α is 5 µM; in the experiment with IL-6, 17 µM.

`CC[C@H]1OC(=O)[C@H](C)[C@@H](O[C@H]2C[C@@](C)(OC)[C@](O)(CNc3ccc(OC)cc3)[C@H](C)O2)[C@H](C)[C@@H](O[C@@H]2O[C@H](C)C[C@H](N(C)S(=O)(=O)c3ccc(Cl)cc3)[C@H]2O)[C@](C)(O)C[C@@H](C)CN[C@H](C)[C@@H](O)[C@]1(C)O` [Example B-27]: the results for the IC50 with TNF-α and with IL-6 were 17 µM and 33 µM, respectively.

For `CC[C@H]1OC(=O)[C@H](C)[C@@H](O[C@H]2C[C@@](C)(OC)[C@](O)(CNCc3cscn3)[C@H](C)O2)[C@H](C)[C@@H](O[C@@H]2O[C@H](C)C[C@H](N(C)S(=O)(=O)c3ccc(Cl)cc3)[C@H]2O)[C@](C)(O)C[C@@H](C)CN[C@H](C)[C@@H](O)[C@]1(C)O` [Example B-37], the concentration for half-maximal inhibition (IC50) was 8 µM with TNF-α and 13 µM in the experiment on IL-6.

`CCCNC[C@]1(O)[C@H](C)O[C@@H](O[C@H]2[C@H](C)[C@@H](O[C@@H]3O[C@H](C)C[C@H](N(C)S(=O)(=O)N(C)c4ccc(F)cc4)[C@H]3O)[C@](C)(O)C[C@@H](C)CN[C@H](C)[C@@H](O)[C@](C)(O)[C@@H](CC)OC(=O)[C@@H]2C)C[C@@]1(C)OC` [Example B-61]: the half-inhibitory concentration (IC50) was found to be 37 µM in the experiment on TNF-α and 71 µM with IL-6.

Turning to `CCCNC[C@]1(O)[C@H](C)O[C@@H](O[C@H]2[C@H](C)[C@@H](O[C@@H]3O[C@H](C)C[C@H](N(C)S(=O)(=O)c4ccccc4NC4CC4)[C@H]3O)[C@](C)(O)C[C@@H](C)CN[C@H](C)[C@@H](O)[C@](C)(O)[C@@H](CC)OC(=O)[C@@H]2C)C[C@@]1(C)OC` [Example B-63], the values for the IC50 in the experiment with TNF-α and in the experiment on IL-6 were 9 µM and 10 µM, respectively.

As for `CC[C@H]1OC(=O)[C@H](C)[C@@H](O[C@H]2C[C@@](C)(OC)[C@](O)(CNC3CC3)[C@H](C)O2)[C@H](C)[C@@H](O[C@@H]2O[C@H](C)C[C@H](N(C)S(=O)(=O)Nc3ccc(C(F)(F)F)cc3)[C@H]2O)[C@](C)(O)C[C@@H](C)CN[C@H](C)[C@@H](O)[C@]1(C)O` [Example B-70], the figures for the half-maximal inhibitory concentration (IC50) with TNF-α and in the experiment with IL-6 were 4 µM and 13 µM, respectively.

Turning to `CC[C@H]1OC(=O)[C@H](C)[C@@H](O[C@H]2C[C@@](C)(OC)[C@](O)(CNCC(C)C)[C@H](C)O2)[C@H](C)[C@@H](O[C@@H]2O[C@H](C)C[C@H](N(C)S(=O)(=O)Nc3ccc(C(F)(F)F)cc3)[C@H]2O)[C@](C)(O)C[C@@H](C)CN[C@H](C)[C@@H](O)[C@]1(C)O` [Example B-85], the IC50 in the experiment on TNF-α worked out at 9 µM; in the experiment with IL-6, 26 µM.

On to `CC[C@H]1OC(=O)[C@H](C)[C@@H](O[C@H]2C[C@@](C)(OC)[C@](O)(CNCc3ccncc3)[C@H](C)O2)[C@H](C)[C@@H](O[C@@H]2O[C@H](C)C[C@H](N(C)S(=O)(=O)Nc3ccc(C(F)(F)F)cc3)[C@H]2O)[C@](C)(O)C[C@@H](C)CN[C@H](C)[C@@H](O)[C@]1(C)O` [Example B-89], for which the IC50 was 9 µM with TNF-α and 23 µM in the experiment on IL-6.

`CC[C@H]1OC(=O)[C@H](C)[C@@H](O[C@H]2C[C@@](C)(OC)[C@](O)(CNCc3ccccc3)[C@H](C)O2)[C@H](C)[C@@H](O[C@@H]2O[C@H](C)C[C@H](N(C)S(=O)(=O)Nc3ccc(C(F)(F)F)cc3)[C@H]2O)[C@](C)(O)C[C@@H](C)CN[C@H](C)[C@@H](O)[C@]1(C)O` [Example B-90]: the IC50 with TNF-α is 8 µM; with IL-6, 26 µM.

For `CCCNC[C@]1(O)[C@H](C)O[C@@H](O[C@H]2[C@H](C)[C@@H](O[C@@H]3O[C@H](C)C[C@H](N(C)S(=O)(=O)c4cnc5ccccn45)[C@H]3Oc3ccc(OC)cc3)[C@](C)(O)C[C@@H](C)CN[C@H](C)[C@@H](O)[C@](C)(O)[C@@H](CC)OC(=O)[C@@H]2C)C[C@@]1(C)OC` [Example B-118], the half-inhibitory concentration (IC50) came out at 45 µM in the experiment on TNF-α and 10 µM in the experiment with IL-6.

Consider `CC[C@H]1OC(=O)[C@H](C)[C@@H](O[C@H]2C[C@@](C)(OC)[C@](O)(CNCc3ccccc3)[C@H](C)O2)[C@H](C)[C@@H](O[C@@H]2O[C@H](C)C[C@H](N(C)S(=O)(=O)c3nccn3C)[C@H]2Oc2ccc(F)cc2)[C@](C)(O)C[C@@H](C)CN[C@H](C)[C@@H](O)[C@]1(C)O` [Example B-141], for which the IC50 is 7 µM in the experiment with TNF-α and 4 µM in the experiment on IL-6.

`CCCNC[C@]1(O)[C@H](C)O[C@@H](O[C@H]2[C@H](C)[C@@H](O[C@@H]3O[C@H](C)C[C@H](N(CCC)S(=O)(=O)c4ccc(Cl)cc4)[C@H]3O)[C@](C)(O)C[C@@H](C)CN[C@H](C)[C@@H](O)[C@](C)(O)[C@@H](CC)OC(=O)[C@@H]2C)C[C@@]1(C)OC` [Example B-142]: the half-inhibitory concentration (IC50) in the experiment on TNF-α (Bos taurus) came to 8 µM; in the experiment on IL-6 (Bos taurus), 9 µM.

For the compound `CCCNC[C@]1(O)[C@H](C)O[C@@H](O[C@H]2[C@H](C)[C@@H](O[C@@H]3O[C@H](C)C[C@H](N(CC(C)C)S(=O)(=O)c4ccc(OC)cc4)[C@H]3O)[C@](C)(O)C[C@@H](C)CN[C@H](C)[C@@H](O)[C@](C)(O)[C@@H](CC)OC(=O)[C@@H]2C)C[C@@]1(C)OC` [Example B-149], the IC50 in the experiment with TNF-α was found to be 7 µM; with IL-6, 8 µM.

On to `CCCNC[C@]1(O)[C@H](C)O[C@@H](O[C@H]2[C@H](C)[C@@H](O[C@@H]3O[C@H](C)C[C@H](N(CC(C)C)S(=O)(=O)c4ccc(Cl)cc4)[C@H]3O)[C@](C)(O)C[C@@H](C)CN[C@H](C)[C@@H](O)[C@](C)(O)[C@@H](CC)OC(=O)[C@@H]2C)C[C@@]1(C)OC` [Example B-150], for which the IC50 in the experiment on TNF-α was 4 µM; with IL-6 it was 5 µM.

Turning to `CCCNC[C@]1(O)[C@H](C)O[C@@H](O[C@H]2[C@H](C)[C@@H](O[C@@H]3O[C@H](C)C[C@H](N(C)S(=O)(=O)c4ccc(Cl)cc4)[C@H]3O)[C@](C)(O)C[C@@H](C)CN(CCC)[C@H](C)[C@@H](O)[C@](C)(O)[C@@H](CC)OC(=O)[C@@H]2C)C[C@@]1(C)OC` [Example B-151], the IC50 was found to be 8 µM in the experiment with TNF-α and 10 µM with IL-6.

Take `CCCNC[C@]1(O)[C@H](C)O[C@@H](O[C@H]2[C@H](C)[C@@H](O[C@@H]3O[C@H](C)C[C@H](N(C)S(=O)(=O)c4ccc(Cl)cc4)[C@H]3O)[C@](C)(O)C[C@@H](C)CN(C)[C@H](C)[C@@H](O)[C@](C)(O)[C@@H](CC)OC(=O)[C@@H]2C)C[C@@]1(C)OC` [Example B-153]: the IC50 in the experiment on TNF-α worked out at 7 µM; in the experiment on IL-6, 10 µM.

Take `CCCNC[C@]1(O)[C@H](C)O[C@@H](O[C@H]2[C@H](C)[C@@H](O[C@@H]3O[C@H](C)C[C@H](N(C)S(=O)(=O)c4ccc(C)cc4)[C@H]3O)[C@](C)(O)C[C@@H](C)CN(CCC)[C@H](C)[C@@H](O)[C@](C)(O)[C@@H](CC)OC(=O)[C@@H]2C)C[C@@]1(C)OC` [Example B-154]: the half-maximal inhibitory concentration (IC50) with TNF-α was found to be 7 µM; in the experiment with IL-6 it was 15 µM.

Regarding `CCCN1C[C@H](C)C[C@@](C)(O)[C@H](O[C@@H]2O[C@H](C)C[C@H](N(C)S(N)(=O)=O)[C@H]2O)[C@@H](C)[C@H](O[C@H]2C[C@@](C)(OC)[C@](O)(CNc3ccc(OC)cc3)[C@H](C)O2)[C@@H](C)C(=O)O[C@H](CC)[C@@](C)(O)[C@H](O)[C@H]1C` [Example B-157], the figures for the half-inhibitory concentration (IC50) in the experiment on TNF-α and with IL-6 were 22 µM and 31 µM, respectively.
